Data on four compounds can be found in the NIST ThermoML archive (doi:10.1016/j.fluid.2007.08.008).

Each structure is given as a SMILES string. Numbers after ± are expanded uncertainties.

The nature of data set [1]: refractive index (Na D-line) (dimensionless). The following applies: 298.15 K; 101.33 kPa; Liquid; Standard Abbe refractometry.
For data set [2] the following is noted: 298.15 K; 101.33 kPa; Liquid; Vibrating tube method.

One may read the refractive index as the speed of light in vacuum divided by its phase velocity in the sample. One may read the mass density as the mass of a sample divided by its volume.

Regarding `OCCO` [1,2-ethanediol], the refractive index in data set [1] was 1.4306 ± 0.004. As for `CCCOCCC` [dipropyl ether], the refractive index in data set [1] came to 1.3784 ± 0.0045. In addition, in data set [2], the mass density worked out at 741.81 ± 13 kg/m3. For `CCCO` [propan-1-ol], in that order: 1.3836 ± 0.004 and 799.62 ± 0.14 kg/m3. Regarding `O` [water], the refractive index in data set [1] is listed as 1.3325 ± 0.004.
